Active and inactive are the calls of the source. The rule behind the calls is not given here.
Columns and labels:
Syrian golden hamster [1] = assay: Antidyslipidemic activity in Triton-induced hyperlipidemic Syrian golden hamster model assessed as increase in lecithin-cholesterol acyltransferase level at 50 mg/kg measured after 18 hrs; type: functional, Mesocricetus auratus
L6 [2] = assay: Induction of GLUT4myc translocation to rat L6 cells surface measured after 16 hrs by colorimetric assay; type: functional, cell-based; conditions: dose 5-25 µM
Mus musculus [3] = organism: Mus musculus; assay: Antidyslipidemic activity in db/db mouse assessed as decrease in serum cholesterol level measured after 15 days relative to control; type: functional; set-up: scale not given: the % may be the effect or the level left; conditions: time 15 day
Mus musculus [4] = organism: Mus musculus; assay: Antidyslipidemic activity in db/db mouse assessed as effect on body weight measured after 9 days; type: functional, organism-based; conditions: time 9.0 day
Syrian golden hamster [5] = assay: Antidyslipidemic activity in Triton-induced hyperlipidemic Syrian golden hamster model assessed as decrease in PL level at 50 mg/kg measured after 18 hrs; type: functional, Mesocricetus auratus; set-up: scale not given: the % may be the effect or the level left
Mus musculus [6] = assay: Antidiabetic activity in db/db mouse assessed as decrease in fasting blood glucose level at 30 mg/kg administered for 15 consecutive days by oral glucose tolerance test relative to control; type: functional; set-up: scale not given: the % may be the effect or the level left; conditions: time 15 day
L6 [7] = assay: Induction of insulin stimulated glucose uptake in rat L6 cells expressing GLUT4 myc epitopes at 10 uM preincubated for 16 hrs followed by 3 hrs incubation under serum deprived medium prior to insulin stimulation for 20 mins; type: functional, cell-based; conditions: time 1160.0 min
Mus musculus [8] = assay: Antidiabetic activity in db/db mouse assessed as decrease in postprandial blood glucose at 30 mg/kg measured after 9 days; type: functional, organism-based; conditions: time 9.0 day
[9] = Antioxidant activity assessed as hydroxyl radical scavenging activity at 100 uM incubated for 90 mins by spectrophotometric analysis; type: functional
Mus musculus [10] = organism: Mus musculus; assay: Antidiabetic activity in db/db mouse assessed as increase in GLUT4 level incubated for 15 mins by Western blot analysis; type: functional, organism-based
[11] = Antioxidant activity assessed as superoxide anion radical scavenging activity at 100 uM incubated for 30 mins by spectrophotometric analysis; type: functional
Mus musculus [12] = assay: Antidiabetic activity in db/db mouse assessed as decrease in serum insulin levels at 30 mg/kg administered for 15 consecutive days by oral glucose tolerance test relative to control; type: functional; set-up: scale not given: the % may be the effect or the level left; conditions: time 15 day
L6 [13] = assay: Induction of GLUT4myc translocation to rat L6 cells surface at 5 to 25 uM incubated for 20 mins followed by insulin stimulation by colorimetric assay; type: functional, cell-based; conditions: dose 5-25 µM
Rattus norvegicus [14] = assay: Antidiabetic activity in streptozotocin induced hyperglycemic Wistar rat model assessed as improvement in blood glucose level at 100 mg/kg,po measured upto 24 hrs relative to control; type: functional
L6 [15] = assay: Cytotoxicity against rat L6 cells assessed as reduction in cell viability at 5 to 100 uM incubated overnight by MTT assay; type: toxicity, cell-based; conditions: l6, 100 µM, dose 5-100 µM
Syrian golden hamster [16] = assay: Antidyslipidemic activity in Triton-induced hyperlipidemic Syrian golden hamster model assessed as increase in post-heparin lipolytic activity at 50 mg/kg measured after 18 hrs; type: functional, Mesocricetus auratus
L6 [17] = assay: Induction of glucose uptake in rat L6 cells expressing GLUT4 myc epitopes at 10 uM incubated for 24 hrs by scintillation counting method relative to control; type: functional
Syrian golden hamster [18] = assay: Antidyslipidemic activity in Triton-induced hyperlipidemic Syrian golden hamster model assessed as decrease in total cholesterol level at 50 mg/kg measured after 18 hrs; type: functional, Mesocricetus auratus; set-up: scale not given: the % may be the effect or the level left
Mus musculus [19] = assay: Antidiabetic activity in db/db mouse assessed as decrease in rise of postprandial hyperglycemia at 30 mg/kg measured after 10 days post glucose challenge by oral glucose tolerance test relative to control; type: functional; set-up: scale not given: the % may be the effect or the level left; conditions: time 10 day
L6 [20] = assay: Induction of glucose uptake in rat L6 cells expressing GLUT4 myc epitopes at 5 uM incubated for 24 hrs by scintillation counting method relative to control; type: functional
Syrian golden hamster [21] = assay: Antidyslipidemic activity in Triton-induced hyperlipidemic Syrian golden hamster model assessed as decrease in triglyceride level at 50 mg/kg measured after 18 hrs; type: functional, Mesocricetus auratus; set-up: scale not given: the % may be the effect or the level left
Mus musculus [22] = assay: Antidiabetic activity in db/db mouse assessed as decrease in rise of postprandial hyperglycemia at 30 mg/kg measured after 15 days post glucose challenge by oral glucose tolerance test relative to control; type: functional; set-up: scale not given: the % may be the effect or the level left; conditions: time 15 day
Mus musculus [23] = organism: Mus musculus; assay: Antidyslipidemic activity in db/db mouse assessed as decrease in serum triglyceride level measured after 15 days relative to control; type: functional; set-up: scale not given: the % may be the effect or the level left; conditions: time 15 day
Mus musculus [24] = organism: Mus musculus; assay: Antidyslipidemic activity in db/db mouse assessed as increase in serum HDL-cholesterol level measured after 15 days relative to control; type: functional; conditions: time 15 day
Rattus norvegicus [25] = assay: Antidiabetic activity in streptozotocin induced hyperglycemic Wistar rat model assessed as improvement in blood glucose level at 100 mg/kg,po measured upto 5 hrs relative to control; type: functional
Mus musculus [26] = assay: Antidiabetic activity in db/db mouse assessed as decrease in HOMA index at 30 mg/kg administered for 15 consecutive days by oral glucose tolerance test relative to control; type: functional; set-up: scale not given: the % may be the effect or the level left; conditions: time 15 day
Mus musculus [27] = organism: Mus musculus; assay: Antidiabetic activity in db/db mouse assessed as increase in Akt phosphorylation incubated for 15 mins by Western blot analysis; type: functional, organism-based
L6 [28] = assay: Cytotoxicity against rat L6 cells assessed as reduction in cell viability at 10 uM by MTT assay; type: toxicity, cell-based; conditions: l6, 10 µM

SMILES | Activity (Syrian golden hamster [1]) [%] | Activity (L6 [2]) | Activity (Syrian golden hamster [5]) [%] | Activity (L6 [7]) | Activity [9] | Activity [11] | Activity (L6 [13]) | Activity (Rattus norvegicus [14]) [%] | Activity (L6 [15]) | Activity (Syrian golden hamster [16]) [%] | Activity (L6 [17]) [%] | Activity (Syrian golden hamster [18]) [%] | Activity (L6 [20]) [%] | Activity (Syrian golden hamster [21]) [%] | Activity (Rattus norvegicus [25]) [%] | other results
CC1(C)C=Cc2ccc(O)c(C(=O)/C=C/c3ccc4oc(C(=O)c5ccccc5)cc4c3)c2O1 | 18 | Dose-Dependent Effect | 24 | inactive | 16 | 18 | Active | 25.1 | Non-Toxic | 24 | 249 | 21 | 82 | 18 | 22.8 | Activity (Mus musculus [3]): 21%; Activity (Mus musculus [4]): Active; Activity (Mus musculus [6]): 25%; Activity (Mus musculus [8]): Active; Activity (Mus musculus [10]): Active; Activity (Mus musculus [12]): 23.8%; Activity (Mus musculus [19]): 18.2%; Activity (Mus musculus [22]): 29.1%; Activity (Mus musculus [23]): 26.5%; Activity (Mus musculus [24]): 45.2%; Activity (Mus musculus [26]): 39.8%; Activity (Mus musculus [27]): Active
CC1(C)C=Cc2ccc(O)c(C(=O)/C=C/c3ccc4occc4c3)c2O1 | 18 |  | 19 |  | 15 | 18 |  |  |  | 21 |  | 14 |  | 11 |  | Activity (L6 [28]): Toxic
COc1ccc(C(=O)c2cc3cc(/C=C/C(=O)c4c(O)ccc5c4OC(C)(C)C=C5)ccc3o2)cc1 | 12 | Dose-Dependent Effect | 11 | inactive | 7 | 10 | Active | 16.8 | Non-Toxic | 17 | 220.5 | 10 | 93 | 13 | 18.7 | 

Reference: ChEMBL document CHEMBL5252641, “Design, synthesis, and evaluation of benzofuran-based chromenochalcones for antihyperglycemic and antidyslipidemic activities” (RSC Med Chem, 2023)
